Measured values from PMC12345401, “The mRNA Translation Inhibitor Vioprolide A Prevents Inflammatory Pain‐Like Behaviour With Limited Action on Already Established Pain‐Like Behaviour in Mice” (European Journal of Pain (London, England), 2025).
“Also recorded” adds a separate entry of the source.

What was measured:
C57BL/6N mice [1] = assay: CFA-induced paw inflammation, mechanical hypersensitivity; format: in vivo, mouse
Procedure: (§1) Paw withdrawal latencies following mechanical stimulation were assessed using a dynamic plantar aesthesiometer (Ugo Basile, Gemonio, Italy), which compresses a stainless‐steel probe (0.5‐mm diameter) against the plantar surface of the hindpaw through a wire mesh bottom on which the mice are placed. The applied force was increased from 0 to 5 g over a period of 10 s (0.5 g/s ramp) and then remained constant at 5 g for an additional 10 s (total cutoff time, 20 s). An unequivocal paw withdrawal was evaluated as a response. The paw withdrawal latency was calculated as the average of three to four consecutive exposures with at least 20 s in between. The area under the curve was calculated using Prism 10 (Graph Pad) software.
Paw inflammation was induced by injecting 20 μL of complete Freund's adjuvant (CFA; containing 1 mg/mL heat‐killed Mycobacterium tuberculosis in paraffin oil 85% and mannide monooleate 15%; Sigma‐Aldrich, St. Louis, USA) into the plantar side of a hindpaw (Petersen et al. [2019]). Vioprolide A (0.3, 1 or 3 mg/kg), diclofenac (50 mg/kg; Sigma‐Aldrich, St. Louis, USA), or vehicle (1% DMSO in 0.9% NaCl) was i.p. administered in a volume of 100 μL 24 h after the intraplantar CFA injection. Paw withdrawal latencies following mechanical stimulation were assessed using a dynamic plantar aesthesiometer as described above.

mice = settings: cited from earlier work; for cytokines (interleukin-1β, interleukin-6, tumour necrosis factor) in peritoneal lavage after zymosan-induced peritonitis: Stark et al. [2019]
C57BL/6N mice [2] = test system: C57BL/6N mice; set-up: method as in Metzner et al. [2021]; settings: positive control in a previous study; ref Metzner et al. [2021]; cited from earlier work
rodents = test system: rodents; set-up: method as in earlier work; settings: local treatment, ref Geranton et al. [2009], Jimenez-Diaz et al. [2008], Price et al. [2007]; cited from earlier work
C57BL/6N mice [3] = assay: Zymosan-induced peritonitis, dynamic weight bearing; format: in vivo, mouse; settings: 0.3 mg/kg s.c. into the neck 16 h prior to i.p. zymosan; DWB 5 h after zymosan; vs vehicle
Procedure: Acute peritonitis was induced by a single intraperitoneal (i.p.) injection (0.5 mL) of a zymosan A suspension (2 mg/mL in phosphate‐buffered saline (PBS) without Ca^2+/Mg^2+; Sigma‐Aldrich, Steinheim, Germany and Gibco, Darmstadt, Germany) as described (Stark et al. [2019]). Vioprolide A (0.3 mg/kg; kindly provided by the group of Prof. Rolf Müller, Helmholtz Institute for Pharmaceutical Research Saarland (HIPS), Helmholtz Center for Infection Research and Department of Pharmacy, Saarland University, Saarbrücken, Germany) or vehicle (1% DMSO in 0.9% NaCl) was subcutaneously (s.c.) injected into the neck (to prevent direct interaction with the i.p. applied zymosan) in a volume of 100 μL 16 h prior to the zymosan injection. An automated dynamic weight bearing (DWB) device (Bioseb, Boulogne, France) was used to assess the pain‐like behaviour during zymosan‐induced peritonitis. […] The recorded weight distribution was analysed using the DWB software as described (Laux‐Biehlmann et al. [2016]; Stark et al. [2019]). A zone was considered valid when the following parameters were detected: ≥ 0.8 g on one captor with a minimum of two adjacent captors recording ≥ 1.0 g. A time segment was considered valid if ≥ 3 stable pictures were detected (Laux‐Biehlmann et al. [2016]; Stark et al. [2019]). […]

C57BL/6N mice [4] = assay: Zymosan-induced paw oedema (plethysmometer); format: in vivo, mouse; settings: 0.3, 1 and 3 mg/kg s.c. 16 h prior to intraplantar zymosan; vs vehicle
Procedure: (§2) Paw inflammation was induced by injecting 20 μL of a zymosan A suspension (5 mg/mL in PBS without Ca^2+/Mg^2+, pH 7.4; Sigma‐Aldrich, St. Louis, USA) into the plantar side of a hindpaw (Petersen et al. [2019]). Vioprolide A (0.3, 1 or 3 mg/kg) or vehicle (1% DMSO in 0.9% NaCl) was s.c. administered into the neck in a volume of 100 μL 16 h prior to the intraplantar zymosan injection.
The volume of the hindpaw was measured using a plethysmometer (Ugo Basile, Gemonio, Italy) according to the manufacturer's instructions. The dipping solution contained 0.8–0.9 g/L NaCl in distilled water and 2–3 mL/L wetting compound (Ugo Basile, Gemonio, Italy) to reduce drop and meniscus build‐up. The paw volume was calculated as a mean of three measurements. The area under the curve was calculated using Prism 10 (Graph Pad) software.

[5] = Pharmacokinetic profile, brain levels (LC-MS); format: in vivo; settings: 0.3 mg/kg i.p., mouse brain, over 8 h
Procedure: (§3) The pharmacokinetic profile of vioprolide A was determined by staff of Pharmacelsus (Saarbrücken, Germany) in male C57BL/6 mice as described (Balzulat et al. [2024]). A single dose of 0.3 mg/kg vioprolide A (in NaCl 0.9% + 1% DMSO) was i.p. administered, and two blood samples were obtained from each animal retrobulbarly under short isoflurane anaesthesia (at 0.25 and 0.5 h from 3 mice; at 1 and 2 h from 3 mice; and at 4 and 8 h from 3 mice). Immediately after the last blood sample was taken, the animal was euthanised by cervical dislocation, and the brain was collected. Plasma and brain concentrations of vioprolide A were determined by LC–MS analysis. The pharmacokinetic analysis was performed applying a non‐compartment model using the Kinetica 5.0 software (Thermo Scientific, Waltham, USA). All given parameters were obtained by trapezoid area calculation.

C57BL/6N mice [6] = assay: Zymosan-induced paw inflammation, mechanical hypersensitivity (dynamic plantar aesthesiometer); format: in vivo, mouse; settings: 0.3, 1 and 3 mg/kg s.c. 16 h prior to intraplantar zymosan; 1-72 h post-zymosan; vs vehicle
Procedure: as §2, §1

[7] = Pharmacokinetic profile, plasma (LC-MS); format: in vivo; settings: 0.3 mg/kg i.p.
Procedure: as §3

C57BL/6N mice [8] = assay: Accelerating rotarod test; format: in vivo, mouse; settings: 3 mg/kg s.c. into the neck; naive mice; 20 and 44 h after administration
Procedure: (§4) For the accelerating rotarod test, mice were placed on a rotarod treadmill (Ugo Basile, Gemonio, Italy) at increasing speed (4–40 rpm over 300 s; cutoff time 300 s) and trained for several consecutive days. Only mice that reached 300 s without falling off during the training sessions were included in the experiment. In the vertical pole test, mice were placed with the head pointing upward on a vertical pole and the time needed to reach the ground was recorded (cutoff time 20 s). After baseline measurements, vioprolide A (3 mg/kg) or vehicle (1% DMSO in 0.9% NaCl) was s.c. administered into the neck and the accelerating rotarod test immediately followed by the vertical pole test was performed 20 and 44 h after drug administration. Three trials per mouse were used for evaluation (Balzulat et al. [2024]).

C57BL/6N mice [9] = assay: Von Frey filament test in naive mice; format: in vivo, mouse; settings: 3 mg/kg s.c. into the neck, 22 and 46 h after administration
Procedure: Immediately after the vertical pole test, mice were placed on a wire‐mesh platform in Plexiglas cylinders and habituated for approximately 1 h. Von Frey filaments ranging from 0.04 to 4 g (Ugo Basile, Gemonio, Italy) were applied to the plantar surface of a hind paw for 1 s with a force causing the filament to bend. Starting with the lowest force, each filament was applied 10 times with a break of at least 2 min. The number of paw withdrawal reactions per 10 applications was used to calculate the withdrawal frequency (Beaulieu‐Laroche et al. [2020]). Measurements were performed at baseline and 22 and 46 h after vioprolide A or vehicle administration.

C57BL/6N mice [10] = assay: Vertical pole test; format: in vivo, mouse; settings: 3 mg/kg s.c. into the neck; naive mice; 20 and 44 h after administration
Procedure: as §4

C57BL/6N mice [11] = assay: Spared nerve injury (SNI)-induced neuropathy, mechanical hypersensitivity; format: in vivo, mouse; settings: 0.3 mg/kg i.p. on Day 14 after SNI; observed over 48 h
Procedure: as §1
The SNI model was performed as described previously (Bourquin et al. [2006]; Petersen et al. [2019]). Briefly, under isoflurane anaesthesia the tibial and common peroneal branches of the sciatic nerve were ligated and dissected distally. The sural nerve remained intact and the mice developed hypersensitivity in the lateral area of the hindpaw. Vioprolide A (0.3 mg/kg) or vehicle (1% DMSO in 0.9% NaCl) were i.p. administered in a volume of 100 μL 14 days after SNI. Paw withdrawal latencies following mechanical stimulation were assessed using a dynamic plantar aesthesiometer as described above.

[12] = male, C57BL/6, ip, mouse plasma

Structure (SMILES): O=C(O)Cc1ccccc1Nc1c(Cl)cccc1Cl [diclofenac, reference compound]
- CFA-induced mechanical hypersensitivity (paw withdrawal latency) (C57BL/6N mice [1]; 50 mg/kg i.p. 24 h after intraplantar CFA, positive control, statistical significance not reached): visibly attenuated

Structure (SMILES): COC(=O)C[C@](O)(CCCC(C)(C)O)C(=O)O[C@@H]1C(OC)=C[C@]23CCCN2CCc2cc4c(cc2[C@H]13)OCO4 [homoharringtonine]
- cytokines (interleukin-1β, interleukin-6, tumour necrosis factor) in peritoneal lavage after zymosan-induced peritonitis (mice; ref Burgers et al. [2024]): reduced the amount of cytokines
- pain behaviour during zymosan-induced peritonitis (mice; ref Burgers et al. [2024]): ameliorated the pain behaviour

Structure (SMILES): O=C1N[C@@H]2C(=C[C@H](O)[C@@H](O)[C@H]2O)c2cc3c(c(O)c21)OCO3 [narciclasine]
- cytokines (interleukin-1β, interleukin-6, tumour necrosis factor) in peritoneal lavage after zymosan-induced peritonitis (mice; ref Burgers et al. [2024]): reduced the amount of cytokines
- visceral pain behaviour in murine peritonitis model (mice; ref Stark et al. [2019]): significantly inhibited visceral pain behaviour

Structure (SMILES): CC(C)C[C@H](CN)CC(=O)O [pregabalin]
- neuropathic pain behaviour in SNI model (C57BL/6N mice [2]): attenuated the neuropathic pain behaviour

Structure (SMILES): CO[C@H]1C[C@@H]2CC[C@@H](C)[C@@](O)(O2)C(=O)C(=O)N2CCCC[C@H]2C(=O)O[C@H]([C@H](C)C[C@@H]2CC[C@@H](O)[C@H](OC)C2)CC(=O)[C@H](C)/C=C(\C)[C@@H](O)[C@@H](OC)C(=O)[C@H](C)C[C@H](C)/C=C/C=C/C=C/1C [rapamycin]
- persistent pain-like behaviour (rodents): attenuated persistent pain‐like behaviour

Structure (SMILES): C/C=C1/NC(=O)[C@@H]2CSC(=N2)[C@@H]2C[C@@H](C)N2C(=O)[C@@H](CC(C)C)NC(=O)[C@H](C)NC(=O)[C@@H](O)COC(=O)[C@H](C(C)C)N(C)C(=O)[C@H]([C@@H](C)O)NC(=O)[C@@H]2CCCCN2C1=O [vioprolide A]
- zymosan-induced weight shift towards the frontpaws (visceral nociceptive behaviour) (C57BL/6N mice [3]): significantly ameliorated; also recorded: significantly lower
- zymosan-induced paw edema (paw volume, time course and AUC) (C57BL/6N mice [4]): decreased in a dose‐dependent manner; also recorded: significantly reduced
- brain level [5]: not detected in the brain
- zymosan-induced mechanical hypersensitivity (paw withdrawal latency, time course and AUC) (C57BL/6N mice [6]): significantly ameliorated; also recorded: significantly reduced
- CFA-induced mechanical hypersensitivity (paw withdrawal latency) (C57BL/6N mice [1]; 0.3, 1 and 3 mg/kg i.p. 24 h after intraplantar CFA, observed over 24 h): failed to affect the mechanical hypersensitivity; also recorded: none of the applied doses of vioprolide A affected
- %AUCextra (extrapolated part of AUC0-inf) ([7]; mouse plasma): 3.9%
- t 1/2z (half-life of the terminal slope) ([7]; mouse plasma): 1.0 h
- t z (time of the last quantifiable sample) ([7]; mouse plasma): 4.0 h
- concentration at 4 h ([7]; male, C57BL/6, intraperitoneal, mouse plasma, read-out: C z (last analytically quantifiable concentration)): 0.1 ng/mL
- AUC(0-t) [7, 12]: 3.6 ng·h/mL
- Cmax [7, 12]: 7.8 ng/mL
- Tmax [7, 12]: 0.25 h
- AUC(0-inf) ([7]; male, C57BL/6, ip, mouse plasma, extrapolated to infinity): 3.8 ng·h/mL
- CL/F ([7]; male, C57BL/6, ip, mouse plasma, read-out: CL/f (total body clearance after extravascular administration) (converted)): 1330 mL/min/kg
- Vd/F ([7]; male, C57BL/6, ip, mouse plasma, read-out: V z/f (volume of distribution after extravascular administration)): 116 L/kg
- half-life ([7]; male, C57BL/6, mouse, plasma, ip, 0.3 mg/kg, read-out: t 1/2z (half-life of the terminal slope) (converted)): ~1 h
- motor function, time on accelerating rotarod (C57BL/6N mice [8]): did not affect the time spent on the rotarod; also recorded: did not impair motor function
- mechanical sensitivity, paw withdrawals to von Frey filaments (C57BL/6N mice [9]): did not alter mechanical sensitivity
- motor function, vertical pole test (C57BL/6N mice [10]): did not affect; also recorded: did not impair motor function
- SNI-induced mechanical hypersensitivity (paw withdrawal latency) (C57BL/6N mice [11]): did not affect; also recorded: failed to affect the mechanical hypersensitivity
